US20020169101A1, “Treatment of sexual dysfunction” (priority 1999, published 2002)
“Also recorded” adds a separate entry of the source.

How the values were obtained:
[1] = test system: female genital blood flow; assay: Female genital blood flow in the anaesthetised rabbit model of sexual arousal (pelvic nerve stimulation); type: in vivo; details: 15 mg/kg sc; for basal genital blood flow in the absence of PNS / pelvic-nerve stimulated (PNS) increases in genital (vaginal and clitoral) blood flow: anaesthetised female rabbit (FIGS. 22, 23)
Procedure: Female New Zealand rabbits (˜2.5kg) were pre-medicated with a combination of Medetomidine (Domitor®) 0.5 ml/kg i.m., and Ketamine (Vetalar®) 0.25 ml/kg im. whilst maintaining oxygen intake via a face mask. The rabbits were tracheotomised using a PortexTM uncuffed endotracheal tube 3 ID., connected to ventilator and maintained at a ventilation rate of 30-40 breaths per minute, with an approximate tidal volume of 18-20 ml, and a maximum airway pressure of 10 cm H2O. Anaesthesia was then switched to Isoflurane and ventilation continued with O2 at 21/min. The right marginal ear vein was cannulated using a 23G or 24G catheter, and Lactated Ringer solution perfused at 0.5 ml/min. The rabbit was maintained at 3% Isoflurane during invasive surgery, dropping to 2% for maintenance anaesthesia.
The left groin area of the rabbit was shaved and a vertical incision was made approximately 5 cm in length along the thigh. The femoral vein and artery were exposed, isolated and then cannulated with a PVC catheter (17G) for the infusion of drugs and compounds. Cannulation was repeated for the femoral artery, inserting the catheter to a depth of 10 cm to ensure that the catheter reached the abdominal aorta. This arterial catheter was linked to a Gould system to record blood pressure. Samples for blood gas analysis were also taken via the arterial catheter. Systolic and diastolic pressures were measured, and the mean arterial pressure calculated using the formula (diastolic x2 +systolic)÷3. Heart rate was measured via the pulse oxymeter and Po-ne-mah data acquisition software system (Ponemah Physiology Platform, Gould Instrument Systems Inc). A ventral midline incision was made into the abdominal cavity. The incision was about 5 cm in length just above the pubis. The fat and muscle was bluntly dissected away to reveal the hypogastric nerve which runs down the body cavity. It was essential to keep close to the side curve of the pubis wall in order to avoid damaging the femoral vein and artery which lie above the pubis. The sciatic and pelvic nerves lie deeper and were located after further dissection on the dorsal side of the rabbit. Once the sciatic nerve is identified, the pelvic nerve was easily located. The term pelvic nerve is loosely applied; anatomy books on the subject fail to identify the nerves in sufficient detail. However, stimulation of the nerve causes an increase in vaginal and clitoral blood flow, and innervation of the pelvic region. The pelvic nerve was freed away from surrounding tissue and a Harvard bipolar stimulating electrode was placed around the nerve. The nerve was slightly lifted to give some tension, then the electrode was secured in position. Approximately 1 ml of light paraffin oil was placed around the nerve and electrode. This acts as a protective lubricant to the nerve and prevents blood contamination of the electrode. The electrode was connected to a Grass S88 Stimulator. The pelvic nerve was stimulated using the following parameters:-5V, pulse width 0.5 ms, duration of stimulus 10 seconds and a frequency range of 2 to 16 Hz. Reproducible responses were obtained when the nerve was stimulated every 15-20 minutes. A frequency response curve was determined at the start of each experiment in order to determine the optimum frequency to use as a sub-maximal response, normally 4 Hz. A ventral midline incision was made, at the caudal end of the pubis, to expose the pubic area. Connective tissue was removed to expose the tunica of the clitoris, ensuring that the wall was free from small blood vessels. The external vaginal wall was also exposed by removing any connective tissue. One laser Doppler flow probe was inserted 3 cm into the vagina, so that half the probe shaft was still visible. A second probe was positioned so that it lay just above the external clitoral wall. The position of these probes was then adjusted until a signal was obtained. A second probe was placed just above the surface of a blood vessel on the external vaginal wall. […]

[2] = test system: penile intracavernosal pressure; assay: Penile intracavernosal pressure in the conscious male rat (telemetry); type: in vivo; details: Compound 1 10 mg/kg sc, one hour after, Compound 3 15 mg/kg sc, 45 minutes after, conscious male rat (FIGS. 24, 25)
Procedure: In addition to treating women with FSD, bombesin antagonists will be useful in treating male erectile dysfunction (MED. Both the non-selective BB1/2 antagonists (Compound 1; 10 mg/kg sc) and the selective BB1 receptor antagonist (Compound 3; 15 mg/kg sc) is pro-erectile in a conscious rat model of penile erection (FIGS. 24 and 25). Erectile responses were recorded by measuring intracavemosal pressure using surgically implanted telemetric device. The specific details the surgical procedures, data acquisition and analysis can be found in detail in Bernabe 1999.
Compound 1 and compound 3 were dissolved in 50% β-cyclodextrin in saline. They were administered at a dose of […] subcutaneously (sc). […] These increases equate to penile erection. Both Compounds 1 and 3 induced a number of erections in a similar manner to those observed with apomorphine or melanotan-II—both of which are clinically proven agents that are effective in the treatment of MED. Moreover the amplitude of the increases observed were similar to those observed with apomorphine or melanotan-II. The mechanism of action is thought to be similar to the effects on female genital flow ie CNS potentiation of the descending neuronal pathways that control penile erection.

[3] = Plasma sexual hormone levels in ovariectomised female rats (radioimmunoassay); type: in vivo, rat
Procedure: Ovariectomised adult female Sprague Dawley rats (180-200 g) were housed in groups of 6 in a reversed lighting system of 12 h light:dark (lights off 7.00-19.00 h). They were used for the experiments at least two weeks after ovariectomy. Forty eight hours before tests, the animals were primed with oestradiol benzoate (5 μg/0.1 ml in corn oil, s.c.). Progesterone (0.5 mg/0.1 ml, in corn oil, s.c.) was administered 4 h before blood collection, as a positive control. Compound (1) (3-10 mg/kg, i.p.) was administered in 50% 2-hydroxypropyl-β-cyclodextrin, 1 h prior to blood collection. Blood was collected from the trunk, after decapitation. It was immediately centrifuged (3500 r.p.m., 4° C., 5 min) and the plasmas frozen until assayed for hormonal content, using commercially available radioimmunoassay kits (^125I-labelled hormones) for oestradiol, progesterone, LH, FSH and prolactin.

C[C@@](Cc1c[nH]c2ccccc12)(NC(=O)Nc1ccc([N+](=O)[O-])cc1)C(=O)NCC1(c2ccc(N)cc2)CCCCC1 [Compound 3, (2S)-N-{[1-(4-aminophenyl)cyclohexyl]methyl}-3-(1H-indol-3-yl)-2-methyl-2-{[(4-nitroanilino)-carbonyl]amino}propanamide]
time after sc dosing at which potentiation was significant [1]: 45 min | time potentiation remained elevated [1]: circa 1 hr | basal genital blood flow in the absence of PNS [1]: no effect on basal genital blood flow | pelvic-nerve stimulated (PNS) increases in genital (vaginal and clitoral) blood flow [1]: potent enhancer of pelvic-nerve stimulated (PNS) increases in vaginal and clitoral blood flow | penile intracavernosal pressure / erection [2]: pro-erectile | penile intracavernosal pressure / erection ([2]; listed as compound 3): significant increases in intracavernosal pressure

COc1ccc(C2(CNC(=O)[C@](C)(Cc3c[nH]c4ccccc34)NC(=O)Nc3ccc([N+](=O)[O-])cc3)CCCCC2)nc1 [Compound (1), (S) 3-(1H-Indol-3-yl)-N-[1-(5-methoxy-pyridin-2-yl)-cyclohexyl-methyl]-2-methyl-2-[3-(4-nitro-phenyl)-ureido]-propionamide]
plasma levels of progesterone ([3]; Compound (1) 3-10 mg/kg i.p. 1 h, progesterone 0.5 mg s.c. 4 h before blood collection, vs vehicle (FIG. 6)): no effect | plasma levels of LH ([3]; Compound (1) 3-10 mg/kg i.p. 1 h, progesterone 0.5 mg s.c. 4 h before blood collection, vs vehicle (FIG. 9)): no effect | plasma levels of oestradiol ([3]; Compound (1) 3-10 mg/kg i.p. 1 h before blood collection (FIG. 7)): no effect | plasma levels of prolactin ([3]; Compound (1) 3-10 mg/kg i.p. 1 h before blood collection (FIG. 8)): no effect | plasma levels of FSH ([3]; Compound (1) 3-10 mg/kg i.p. 1 h before blood collection (FIG. 10)): no effect | basal genital blood flow in the absence of PNS [1]: no effect on basal genital blood flow | pelvic-nerve stimulated (PNS) increases in genital (vaginal and clitoral) blood flow [1]: potent enhancer of pelvic-nerve stimulated (PNS) increases in genital blood flow | penile intracavernosal pressure / erection [2]: pro-erectile; also recorded: significant increases in intracavernosal pressure
